Data from patent US6881732B2, “Neuroprotection and cardioprotection afforded by chelators with high affinity and specificity for cations of first transition series elements” (Chelator LLC, priority 2002, dated 2005).

Tests used:
[1] = tested on: Fenton Reactions (iron catalyzed Haber-Weiss pathways); assay: iron-catalyzed free radical generation, superoxide-driven Fenton reaction; assay type: biochemical; settings: chelator as Fe(III) complex
Procedure: Employing published methods, as described in “Quantitative Effects of Iron Chelators on Hydroxyl Radical Production by the Superoxide-Driven Fenton Reaction,” J. B. Smith, J. C. Cusumano, C. F. Babbs, Free Rad. Res. Comms. 1990, Vol. 8, No. 2, 101-106, the ability of Fe(III) complexed to N,N′,N″-tri(dihydroxy-phosphoryl methyl)-1,4,7-triazacyclononane to support Fenton reactions was evaluated.

Sprague Dawley rats = assay: subacute toxicity, repeated intravenous doses in rats; assay type: in vivo, rat
From the text: Ten male Sprague Dawley rats 29 days old and weighing between 73.4 and 87.8 grams at the beginning of the experiment were randomized, employing the block stratificaton method, into two groups consisting of five rats each. On each of days 1, 2, 3, 6, 7, 8, 9, 10, 13 and 14 of the experiment one set of rats received an intravenous dose of N,N′,N″-tri(dihydroxyphosphoryl methyl)-1,4,7-triazacyclononane (Example 1C in U.S. Pat. No. 5,236,695) equal to 0.05 millimoles per kg of initial body weight (experimental group) while the other group received an equivalent volume of normal saline solution. The weights of the animals were recorded three times per week and the animals were sacrificed on the 28th day, major organs removed and weighed and tissues removed for microscopic examination.

[2] = tested on: HFF (human foreskin fibroblasts); assay: toxicity toward nonproliferating mammalian cells in vitro; assay type: cell-based; settings: 0.3 mM; mature, nonreplicating HFF cultures in maintenance media; five-day period of observation
From the text: This example illustrates the relatively low toxicity of a representative example of the chelators of this invention toward nonproliferating mammalian cells in vitro.

[3] = tested on: ex vivo working rat heart; assay: ex vivo working rat heart model of global ischemia
[4] = tested on: mammalian cell replication; assay: inhibition of mammalian cell replication in vitro; assay type: cell-based
Procedure: (§1) This in vivo LD50 toxicity dose results in an instantaneous in vivo concentration which is orders of magnitude greater than the dose of this agent which inhibits mammalian cell replication in vitro (0.009 mM/L).

unanesthetized rabbit = assay: ventricular overdrive pacing (VOP) induced ischemia in unanesthetized rabbit; assay type: in vivo; settings: for cardioprotection with regard to cardiac performance parameters: 10 min prior to VOP
Procedure: In the in vivo unanesthetized rabbit VOP-induced myocardial ischemia model, intravenous doses of 0.032 mmole/kg and 0.096 mmole/kg of the test compound were cardioprotective with regard to cardiac performance parameters when administered 10 min prior to VOP. […] The test compound had no affect on any cardiac performance parameters in these experiments prior to VOP-induced ischemia.

[5] = acute in vivo toxicity, single intravenous dose in mice; settings: mouse, in vivo, iv
Procedure: (§2) This example illustrates the low in vivo toxicity of a representative example of the chelators of this invention upon administration to mice.
as §1

mice = assay: as above; settings: 3.0 mM/kg single intravenous dose; sodium salt
Procedure: as §2, §1

rats = assay: rat stroke model, transient occlusion of the middle cerebral artery (TMCAO); assay type: in vivo; settings: for Infarct Volumes: 48 hours after surgery; for Infarct Volumes / Motor Score: 1 Hour / Motor Score: 24 Hours / Motor Score: 48 Hours: mean ± SD
anesthetized rabbit = assay: rabbit myocardial infarction model (30 min LCAO, reperfusion ~24 hours); assay type: in vivo; settings: for cardioprotection (volume of infarcted myocardium vs. controls): administered beginning after 15 minutes of LCAO
Procedure: Cardioprotection by the test compound in ischemia-reperfusion injury was evaluated in a rabbit myocardial infarction model employing 30 minutes of reversible ligature occlusion of the left anterior descending coronary artery (LCAO) followed by reperfusion for ˜24 hours prior to sacrifice.

[6] = Set I: three IV doses of 0.032 mmoles/kg at 10 min prior to, 60 min after MCA occlusion and at reperfusion
[7] = Set II: three IV doses of 0.032 mmoles/kg at 60, 120 (reperfusion) and 180 min after MCA occlusion
[8] = Set III: single 0.032 mmoles/kg IV dose after 60 minutes of MCA occlusion
[9] = Set IV: single 0.032 mmoles/kg IV dose after 90 minutes of MCA occlusion

O=C(O)CN(CCN(CC(=O)O)CC(=O)O)CC(=O)O [EDTA, ethylene diamine tetra acetic acid, reference compound]
ability of Fe(III) complexed to the chelator to support Fenton reactions (hydroxyl radical formation) [1]: supported the Fenton reaction yielding hydroxyl radicals

O=P(O)(O)CN1CCN(CP(=O)(O)O)CCN(CP(=O)(O)O)CC1 [N,N′,N″-tris(dihydroxyphosphorylmethyl)-1,4,7-triazacyclononane]
difference in weight or rate of weight gain vs control group (Sprague Dawley rats; 0.05 millimoles per kg IV on 10 days within 14 days, injection period and two-week post-injection period): no statistically significant difference
differences in tissues upon microscopic examination vs control group (Sprague Dawley rats; 0.05 millimoles per kg IV on 10 days, necropsy on 28th day): no differences
differences in weights of major organs vs control group (Sprague Dawley rats; 0.05 millimoles per kg IV on 10 days, sacrifice on 28th day): no differences observed
effect on the resting cells [2]: no effect on the resting cells was observed
effects on cardiac parameters following ischemia ([3]; 2.7 mM in the perfusing medium): no adverse effects
effects on cardiac performance parameters prior to ischemia ([3]; 2.7 mM in the perfusing medium): no effects
cardioprotection with regard to cardiac performance parameters following global ischemia ([3]; added to the perfusing medium, broad concentration range): significantly cardioprotective
concentration of peak efficacy (cardioprotection) ([3]; in the perfusing medium): 0.01 mM
dose which inhibits mammalian cell replication in vitro [4]: 0.009 mM/L
cardioprotection with regard to cardiac performance parameters (unanesthetized rabbit; 0.032 mmole/kg intravenous): cardioprotective
cardioprotection with regard to cardiac performance parameters (unanesthetized rabbit; 0.096 mmole/kg intravenous): cardioprotective
cardioprotection (unanesthetized rabbit; single IV dose of 0.032 mmole/kg administered up to 60-120 min prior to VOP-induced ischemia): significant cardioprotection
effect on cardiac performance parameters prior to VOP-induced ischemia (unanesthetized rabbit; unanesthetized rabbit): no affect
LD50 at 14 days [5]: > 3000 µmol/kg
mice surviving for over 14 days (mice): Over 50%
Infarct Volumes (rats; [6]): 3.5 ± 3.7 percentage of whole hemispheric tissue
Motor Score: 1 Hour (rats; [6]): 7.3 ± 1.3 points
Motor Score: 24 Hours (rats; [6]): 5.9 ± 1.1 points
Motor Score: 48 Hours (rats; [6]): 5.4 ± 1.9 points
Infarct Volumes (rats; [7]): 6.2 ± 7.5 percentage of whole hemispheric tissue
Motor Score: 1 Hour (rats; [7]): 6.9 ± 1.1 points
Motor Score: 24 Hours (rats; [7]): 3.6 ± 2.9 points
Motor Score: 48 Hours (rats; [7]): 3.0 ± 3.0 points
Infarct Volumes (rats; [8]): 2.6 ± 2.1 percentage of whole hemispheric tissue
Motor Score: 1 Hour (rats; [8]): 6.8 ± 1.0 points
Motor Score: 24 Hours (rats; [8]): 4.3 ± 1.0 points
Motor Score: 48 Hours (rats; [8]): 2.8 ± 2.1 points
Infarct Volumes (rats; [9]): 4.63 ± 9.08 percentage of whole hemispheric tissue
Motor Score: 1 Hour (rats; Set IV: single 0.032 mmoles/kg IV dose after 90 minutes of MCA occlusion, cell marked '2 hours:'): 7.43 ± 1.27 points
Motor Score: 24 Hours (rats; [9]): 4.9 ± 2.04 points
Motor Score: 48 Hours (rats; [9]): 3.7 ± 1.98 points
blood pressure, heart rate and temperature values compared with vehicle-treated animals (rats; all treated groups): similar
reduction in infarct volumes compared to the corresponding control group (rats; all treated rats): robust
ability of Fe(III) complexed to the chelator to support Fenton reactions (hydroxyl radical formation) [1]: failed to show evidence of hydroxyl ion formation above background
cardioprotection (volume of infarcted myocardium vs. controls) (anesthetized rabbit): significant reduction
volume of infarcted myocardium expressed as % of myocardial volume at risk (anesthetized rabbit; administration beginning after 15 minutes of LCAO): 30.6%
infarcted myocardium as a % of volume at risk (anesthetized rabbit; administration initiated 10 minutes prior to the onset of ischemia): 28.1%
effect on pre-ischemia cardiac performance parameters (anesthetized rabbit; rabbit): without affecting

O=C(NCCO[N+](=O)[O-])c1cccnc1 [nicorandil, reference compound]
cardioprotection (volume of infarcted myocardium vs. controls) (anesthetized rabbit): failed to provide cardioprotection
